Consider two molecules from patent US4468469A, “Substituted phenylacetic acids and salts as TBP blocking agents in iodothyronine immunoassays” (Miles Laboratories, Inc., priority 1982, dated 1984).

Data set [1] addresses apoglucose oxidase (Aspergillus niger, UniProt P13006). Nature of the data set: Activation of apoglucose oxidase by FAD-labeled conjugate (ANS comparison). Format: biochemical. The protocol: For the purposes of comparison, a series of apoenzyme reactivation measurements were set up with different concentrations of the conventionally used blocking agent ANS. The following reagents were prepared:
0.105M potassium phosphate buffer, pH 7.0
1.1% (w:v) bovine serum albumin
5.26 nM FAD-labeled conjugate, supra
4 μM apoglucose oxidase, supra
50 mM phosphate buffer, pH 7.0
Apoenzyme activity was determined by placing 50 μl of Reagent B in a cuvette and starting the reaction by addition of 1.90 ml of Reagent A. The assay reactions were incubated for 10 minutes at room temperature and the absorbances at 520 nm recorded.

The nature of data set [2]: Optical absorption spectra. Format: physicochemical.
Data set [3] deals with anti(thyroxine) antiserum / apoglucose oxidase. Nature of the data set: Apoenzyme reactivation immunoassay system for serum thyroxine. Format: biochemical. Conditions: 2 mM sodium salt of dissociating agent in buffer. The protocol:
Standard curves for serum thyroxine were generated using a semiautomated assay protocol on the Gilford Clinical Chemistry Analyzer System 203-S (Gilford Instrument Laboratories, Oberline, OH, USA). […] The FAD-thyroxine conjugate (40 nM in 0.1M sodium phosphate, pH 7.0, 0.01% Triton X-100) as a 0.05 ml aliquot was added to the reaction cup and allowed to equilibrate for 30 seconds. The reaction was initiated by addition of 0.10 ml 1.0 μM apoglucose oxidase, 2 mM 4-aminoantipyrine, 12% glycerol, 80 mM sodium phosphate, pH 7.0. The absorbance at 520 nm was recorded after an 8 minute incubation.

Data set [4] relates to serum proteins (thyroxine binding protein, TBP). Nature of the data set: Effect of pH on the dissociation of iodothyronine from serum proteins. Also noted: species or system human. The note with it: over the range pH 6.0-8.0; 2.0 mM. The method, then: Radioactive iodine labeled thyroxine (^125 I-thyroxine obtained from Amersham-Searle, Arlington Heights, IL, USA) was equilibrated with 5 ml of normal human serum for 48 hours at 4° C. […] After 5 minutes of incubation at room temperature, a 165 μl aliquot was applied to a Sephadex® column from a Seralute® thyroxine assay kit (Miles Laboratories, Inc., Ames Division, Elkhart, IN, USA), which had been equilibrated with 0.1M sodium phosphate, pH 7.0. The total radioactivity applied to the columns was measured and the undissociated material was washed through the column with 3 ml of buffer. The columns were counted to determine the percentage of thyroxine dissociated from the serum proteins.
Using the column procedure described in the second study in Example 1, the pH of the 0.1M sodium phosphate was varied and the concentration of the dissociating agent held constant at 2.0 mM. The columns were equilibrated with buffer containing the dissociating agent at the given pH and 165 μl of the serum diluted in buffer at the given pH (as described above) was applied to the column. The total counts were measured and then the columns were washed with buffer at the given pH. The counts remaining on the column represent the percentage of iodothyronine dissociated.

Setting [5] is: 50 μM solution in 0.1M phosphate buffer, pH 7.0.

Chain of apoglucose oxidase (P13006 17-605): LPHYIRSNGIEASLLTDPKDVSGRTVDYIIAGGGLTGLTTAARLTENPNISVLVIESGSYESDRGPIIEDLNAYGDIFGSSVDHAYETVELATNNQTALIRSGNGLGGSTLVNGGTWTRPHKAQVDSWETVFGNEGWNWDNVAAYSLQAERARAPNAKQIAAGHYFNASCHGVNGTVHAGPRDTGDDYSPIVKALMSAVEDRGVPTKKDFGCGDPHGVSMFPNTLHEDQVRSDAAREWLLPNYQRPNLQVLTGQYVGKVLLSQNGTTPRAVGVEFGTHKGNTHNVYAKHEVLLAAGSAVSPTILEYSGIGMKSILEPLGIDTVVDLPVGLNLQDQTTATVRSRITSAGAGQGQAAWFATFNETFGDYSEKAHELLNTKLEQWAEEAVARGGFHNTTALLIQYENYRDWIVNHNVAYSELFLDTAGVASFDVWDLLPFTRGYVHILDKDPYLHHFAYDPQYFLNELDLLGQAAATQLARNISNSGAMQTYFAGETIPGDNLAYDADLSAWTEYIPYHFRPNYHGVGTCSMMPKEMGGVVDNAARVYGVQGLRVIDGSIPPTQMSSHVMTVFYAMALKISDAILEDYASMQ

With `O=S(=O)(O)c1cccc2cccc(Nc3ccccc3)c12` [ANS, 8-anilino-1-naphthalenesulfonic acid], in data set [1] (10 min, pH 7, 0.1 mM ANS in Reagent A, room temperature, read-out: Percent Apoglucose Oxidase Activity), the activity at 100 µM is 64%. The activity at 200 µM in data set [1] (10 min, pH 7, 0.2 mM ANS in Reagent A, room temperature, read-out: Percent Apoglucose Oxidase Activity) was determined as 46%. In addition, the activity at 500 µM in data set [1] (10 min, pH 7, 0.5 mM ANS in Reagent A, room temperature, read-out: Percent Apoglucose Oxidase Activity) worked out at 13%. In addition, the activity at 1000 µM in data set [1] (10 min, pH 7, 1.0 mM ANS in Reagent A, room temperature, read-out: Percent Apoglucose Oxidase Activity) was 0%. In data set [1] (ANS concentrations above about 1.0 mM), the “effect on the recombination reaction of apoglucose oxidase and FAD-labeled conjugate” value is reported as “totally inhibit”. For the same molecule, in data set [2] (setting [5]), the broad absorption band is listed as 300-400 nm and the “wavelength of absorption peak” value is on record as “about 350 nm”. In data set [2] (50 μM solution in 0.1M phosphate buffer, pH 7.0, at about 350 nm), this molecule came in with an absorption peak height of 0.5.

As to `O=C(O)Cc1ccccc1Nc1c(Cl)cccc1Cl` [Diclofenac, 2-(2,6-dichlorophenylamino)phenylacetic acid], the “Absorbance (520 nm)” value in data set [3] (Thyroxine Standard 0 μg/L) was 0.619; in data set [3] (Thyroxine Standard 25 μg/L), 0.620; in data set [3] (Thyroxine Standard 75 μg/L), 0.647; in data set [3] (Thyroxine Standard 125 μg/L), 0.678; in data set [3] (Thyroxine Standard 200 μg/L), 0.719. Further, the “pH dependence of the dissociation of iodothyronine from serum proteins” value in data set [4] is “independent of pH”. Further, in data set [2] (in 0.1M sodium hydroxide), the λmax amounted to 275 nanometers. Besides, the λmin in data set [2] (in 0.1M sodium hydroxide) was 248 nanometers. Besides, in data set [2] (in 0.1M sodium hydroxide, at λmin), the “ε min (NaOH), extinction coefficient” value was found to be 6400 M⁻¹ cm⁻¹.
